Assay results published in patent US20150072391A1, “ETHANOL PRODUCTION IN ENGINEERED YEAST” (Massachusetts Institute of Technology, priority 2013, published 2015).

What was measured:
strain FY4/5 (S288C) = format: cell-based, Saccharomyces cerevisiae
S288C = conditions: YP diluted to 20%
Description: (§1) To explore how ionic composition of the culture medium affects ethanol performance, chemically defined conditions were necessary which precluded, in some instances, the use of rich formulas such as yeast extract-peptone-dextrose (YEPD) medium or those containing corn steep liquor. […] After the addition of a carbon source and any ionic supplements, all medium were adjusted to pH 3.8 (i.e., the equilibrium pH from the addition of 50 mM K—Pi to 1×YSC), if necessary, using KOH, typically requiring <400 μM. Cultures were incubated at 30° C.: flask cultures (>25 mL) were agitated on a platform shaker at 200 RPM and smaller cultures in glass tubes on a roller drum at the maximum rotational setting.

[1] = tested on: laboratory strain (S288C); format: cell-based, Saccharomyces cerevisiae; conditions: for effect on ethanol output among additives screened: additives to 1×YSC, 300 g/L glucose (FIG. 7)
Description: as §1
(§2) Pre-fermentation cultures were grown until saturation and their cell densities determined by absorbance at 600 nm of an appropriate dilution made using fresh medium. Equalized quantities of biomass (e.g., ≧200 OD600 units) were harvested by centrifugation and re-suspended in ˜10 mL of fermentation medium to yield a cell density of OD600≧20. In addition to the target high sugar concentration (e.g., 300 g/L glucose), the fermentation medium optionally contained the supplements under study (e.g., 50 mM K—Pi) and were the first time cells were exposed to modified ionic conditions.
(§3) Fermentations were conducted micro-aerobically: tube-based cultures had at least an equal volume of headspace and were capped snugly with snap-on plastic tops but not sealed with Parafilm. Samples were taken every ˜24 h over the course of 1-4 d; for simplicity, however, several figures display bar graphs of steady state or near steady state ethanol titers (e.g., FIGS. 5A-D). Typically, 16-20 μL were removed and diluted appropriately for measurement of cell density at OD600, another 20 μL for quantification of cell viability by methylene blue staining (see below), and a final 0.5 mL pelleted and the supernatant saved for determination of ethanol concentration.
Ethanol concentrations were determined using one of the following two methods; for consistency, however, all samples deriving from a single experiment were assayed exclusively using one method. […] Absorbances of NADH at 340 nm were blanked against a reaction with ddH2O, measured using an Ultrospec 2100 pro UV/Visible spectrophotometer (GE Healthcare Life Sciences), and normalized against the absorbance of the control solution (“bottle 4”) to determine ethanol concentrations.
To determine final concentrations, peak areas auto-determined by the Agilent Chemstation for LC software were interpolated off a standard curve consisting of 0-20% ethanol (by volume) prepared in 1×YSC medium.
Images were recorded using a SPOT Insight 2 MP Firewire color camera with SPOT 5.0 software, and analyzed offline.
For each image, the number of unstained (clear) cells was quantified along with the total number (clear+stained) of cells, and the fraction of live cells determined by taking the quotient of the two. Fractions of viable cells were determined for 3-4 images per sample and used to calculate error statistics for the technical replicates (e.g., FIGS. 2A, 2B, 8A). Mean OD600 absorbance values were multiplied by their respective mean viable fractions to arrive at the underlying viable population in OD600 units (e.g., FIG. 1B, 3B).
To calculate ethanol productivities per viable cell, rates of increase in ethanol titer were normalized by the average viable OD600 during the corresponding period (FIG. 1A): […]

Strain BY4743 = experiment: Intracellular pH by ratiometric pHluorin after ethanol shock; format: cell-based, Saccharomyces cerevisiae; conditions: for counteraction of the ethanol-mediated pH drop: supplementation of medium
Description: Strain BY4743 (WT) was transformed with p416TEF-pHluorin and grown overnight in 1×YSC-URA containing 200 g/L glucose and any indicated supplements. Equal amounts of yeast biomass were washed and transferred into respective fresh medium containing the indicated concentrations of ethanol, incubated at room temperature for 30 min, and measured for fluorescence emission. The ratio of intensities emitted from excitation at 395 nm and 475 nm ([…]) is directly proportional to pH.
To assess pHi, fluorescence intensities from strains carrying a centromeric plasmid expressing ratiometric pHluorin (LAMy178) or empty vector (LAMy96) were measured in a Tecan Safire^2™ microplate reader using excitation wavelengths of 395 nm and 475 nm, and common emission wavelength of 508 nm. Samples, all normalized for cell density, of 140 μL were aliquoted in duplicate to a 96-well black-walled, clear-bottom plate (Costar #3631), and the readings of the replicates averaged. Autofluorescence was removed by subtracting measurements of LAMy96 from LAMy178, both treated under identical conditions. The ratio of the intensities emitted by excitation at 395 nm to that by excitation at 475 nm is directly proportional to pHi; ratios in the 0.5-1.2 range roughly correspond to pH values of ˜5.5-7 (Orij, R., et al. Microbiology (Reading, Engl) 155, 268-278 (2009)).

yeast = experiment: Fermentation in synthetic media with cellulosic hydrolysate inhibitors; format: cell-based
Description: To determine whether elevated K^+ and pH can overcome the toxicity in acid hydrolysates of cellulosic biomass, fermentation experiments were performed using synthetic lab media supplemented with the known major inhibitors (e.g., acetic acid, furfural and hydroxymethylfurfural (HMF)).
All concentrations were then increased by a factor of four to 120 mM (FIG. 23B), far above what has been reported in any hydrolysate. […] Raising K^+ and pH then boosted production by another 54%.

H131-A3-AL^CS = experiment: High cell density xylose fermentation; format: cell-based, Saccharomyces cerevisiae; conditions: K—Pi supplementation, 100 g/L xylose
Description: Furthermore, altering the medium to augment membrane gradients enhanced ethanol production not only from glucose, but from xylose, an abundant carbon source from lignocellulosic feedstocks that cannot be metabolized by unmodified S. cerevisiae^23. Therefore K—Pi supplementation was tested on H131-A3-AL^CS, a strain incorporating the Piromyces XYLA isomerase and P. stipitis XYL3 xylulokinase, and optimized to consume xylose^24. In high cell density, high xylose-only (100 g/L) fermentations, increases of ˜70% in both ethanol titer and productivity were found (FIG. 5D). […]
To build yeast biomass and osmotically adapt cells for high cell density and high sugar fermentations, starter cultures consisting of the unmodified base medium (i.e., 1×YSC or YSC-URA) and ˜0.3× the target fermentation sugar concentration (e.g., 100 g/L glucose) were grown until saturation, pelleted by centrifugation, and the entire cell mass used to inoculate a second “pre-fermentation” culture containing ˜0.5-0.6× the target sugar concentration (e.g., 150 g/L glucose). Pre-fermentation cultures were grown until saturation and their cell densities determined by absorbance at 600 nm of an appropriate dilution made using fresh medium. Equalized quantities of biomass (e.g., ≧200 OD600 units) were harvested by centrifugation and re-suspended in ˜10 mL of fermentation medium to yield a cell density of OD600≧20. […]

[2] = tested on: S288C, PE-2, Ethanol Red, Kyokai 7; experiment: Glucose fermentation of laboratory and industrial yeast strains; format: cell-based, Saccharomyces cerevisiae; conditions: K—Pi supplementation, laboratory prototroph and auxotroph and industrial strains
Description: as §2, §3

[3] = cited from earlier work; for Specific activity: on PNPC

[K+] [K^+]
resistance to isobutanol (strain FY4/5 (S288C); 5 g/L glucose, K+ supplementation combined with higher pH (5.3 vs. 3.9)): capable of enhancing resistance to isobutanol
enhancement of ethanol output (S288C; addition of K+, pH 6, SD): 17±2.5%
restoration of ethanol titers (S288C; pH 3.7, addition of K+): 47±2.5%
ethanol titer (S288C; pH 3.7, addition of K+, SD): 109 ± 1.8 g/L

[Cl-].[K+] [KCl, potassium chloride]
effect on ethanol output among additives screened [1]: largest enhancement within the panel of chloride salts tested
effect on ethanol output and viability during fermentation ([1]; varied amount of KCl (10-75 mM) in synthetic medium): dose-dependent improvements
viability after isobutanol shock (strain FY4/5 (S288C); 5 g/L glucose, additional KCl alone): insufficient to improve viability
counteraction of the ethanol-mediated pH drop (Strain BY4743): not capable of counteracting

O=Cc1ccc(CO)o1 [HMF, hydroxymethylfurfural]
inhibition compared to the unsupplemented control (yeast; 120 mM): 10%

OCc1ccco1 [furfuryl alcohol]
tolerance by yeast compared to furfural (yeast): much better tolerated

O=P([O-])(O)O.[Na+] [Na—Pi, monosodium phosphate]
effect on ethanol output among additives screened [1]: improves ethanol titer over NaCl

CCO [ethanol]
effect on intracellular pH (Strain BY4743; shocks of increasing ethanol concentration): decreased intracellular pH in a dose-dependent fashion

O=P([O-])(O)O.[K+] [K—Pi, potassium phosphate monobasic]
rise in ethanol output ([1]; 50 mM K—Pi added to 1×YSC, 300 g/L glucose, initial OD600 20-30, vs unmodified medium): > 50%
final ethanol titer ([1]; 50 mM K—Pi, 4-day culture, 300 g/L glucose): ~140 g/L
effect on ethanol output among additives screened [1]: largest improvement
specific ethanol productivity (rate normalized by mean live population) ([1]; elevated K—Pi vs unmodified medium): remained unchanged
additional yeast biomass ([1]; high K—Pi vs unmodified medium): ~25%
survival after ethanol shock (strain FY4/5 (S288C); 10-20% ethanol, 300 g/L glucose, 50 mM K—Pi vs unmodified medium): survival was indeed enhanced
survival after isobutanol shock (strain FY4/5 (S288C); steps of isobutanol, 300 g/L glucose, elevated K—Pi): reduced rate of survival
viability after isopropanol shock (strain FY4/5 (S288C); steps of isopropanol, 300 g/L glucose, K—Pi supplementation): viability was similarly enhanced
increase in ethanol productivity (H131-A3-AL^CS): ~70%
increase in ethanol titer (H131-A3-AL^CS): ~70%
ethanol output titers (near the molar conversion limit) [2]: ~150 g/L
counteraction of the ethanol-mediated pH drop (Strain BY4743): not capable of counteracting

B1: Cellulomonas fimi cex: CBHI group cellulase expressed in S. cerevisiae (protein, UniProt P07986 42-484, looked up)
Exoglucanase/xylanase: ATTLKEAADGAGRDFGFALDPNRLSEAQYKAIADSEFNLVVAENAMKWDATEPSQNSFSFGAGDRVASYAADTGKELYGHTLVWHSQLPDWAKNLNGSAFESAMVNHVTKVADHFEGKVASWDVVNEAFADGDGPPQDSAFQQKLGNGYIETAFRAARAADPTAKLCINDYNVEGINAKSNSLYDLVKDFKARGVPLDCVGFQSHLIVGQVPGDFRQNLQRFADLGVDVRITELDIRMRTPSDATKLATQAADYKKVVQACMQVTRCQGVTVWGITDKYSWVPDVFPGEGAALVWDASYAKKPAYAAVMEAFGASPTPTPTTPTPTPTTPTPTPTSGPAGCQVLWGVNQWNTGFTANVTVKNTSSAPVDGWTLTFSFPSGQQVTQAWSSTVTQSGSAVTVRNAPWNGSIPAGGTAQFGFNGSHTGTNAAPTAFSLNGTPCTVG
activity measured per L culture broth ([3]; PNPC): 8 U/L,
activity per dry cell weight ([3]; PNPC): ~1.0 U/g DCW (PNPC)
Specific activity [3]: 3 U/mg

B2: Cellulomonas fimi Exg (cex): CBHI group cellulase expressed in S. cerevisiae (protein, UniProt P07986 42-484, looked up)
Exoglucanase/xylanase: ATTLKEAADGAGRDFGFALDPNRLSEAQYKAIADSEFNLVVAENAMKWDATEPSQNSFSFGAGDRVASYAADTGKELYGHTLVWHSQLPDWAKNLNGSAFESAMVNHVTKVADHFEGKVASWDVVNEAFADGDGPPQDSAFQQKLGNGYIETAFRAARAADPTAKLCINDYNVEGINAKSNSLYDLVKDFKARGVPLDCVGFQSHLIVGQVPGDFRQNLQRFADLGVDVRITELDIRMRTPSDATKLATQAADYKKVVQACMQVTRCQGVTVWGITDKYSWVPDVFPGEGAALVWDASYAKKPAYAAVMEAFGASPTPTPTTPTPTPTTPTPTPTSGPAGCQVLWGVNQWNTGFTANVTVKNTSSAPVDGWTLTFSFPSGQQVTQAWSSTVTQSGSAVTVRNAPWNGSIPAGGTAQFGFNGSHTGTNAAPTAFSLNGTPCTVG
activity measured per L culture broth ([3]; PNPC): 45 U/L (PNPC)
Specific activity [3]: 3.6 (PNPC) U/mg
